Where “and” joins values, the source holds several entries; their conditions need not be identical. Identical values can stand only once. Like-named read-outs stand apart in the source and are kept apart here.
Key:
LMWPTP = target: T1, LMWPTP (Homo sapiens, UniProt P24666); experiment: PTP inhibition assay (pNPP); type: biochemical
T1 sequence (P24666 1-158): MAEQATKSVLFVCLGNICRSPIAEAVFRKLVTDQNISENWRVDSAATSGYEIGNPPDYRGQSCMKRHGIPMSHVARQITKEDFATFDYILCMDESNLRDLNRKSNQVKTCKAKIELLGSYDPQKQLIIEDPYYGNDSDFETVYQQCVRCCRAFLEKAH

TcPTP = target: T2, TcPTP (Homo sapiens, UniProt P17706); experiment: PTP inhibition assay (pNPP); type: biochemical
T2 sequence (P17706 1-415): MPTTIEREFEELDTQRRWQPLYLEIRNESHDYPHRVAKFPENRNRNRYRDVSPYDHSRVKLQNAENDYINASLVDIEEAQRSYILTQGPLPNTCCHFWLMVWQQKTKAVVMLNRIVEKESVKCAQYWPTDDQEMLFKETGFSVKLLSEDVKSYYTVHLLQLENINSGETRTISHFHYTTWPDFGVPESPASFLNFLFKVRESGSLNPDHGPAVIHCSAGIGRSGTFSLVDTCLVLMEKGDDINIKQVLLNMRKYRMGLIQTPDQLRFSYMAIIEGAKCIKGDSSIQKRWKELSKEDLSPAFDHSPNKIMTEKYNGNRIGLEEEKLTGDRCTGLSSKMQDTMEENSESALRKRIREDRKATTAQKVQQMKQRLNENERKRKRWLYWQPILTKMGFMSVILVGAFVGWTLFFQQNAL

Ssu72 = target: T3, Ssu72 (Homo sapiens, UniProt Q9NP77); experiment: PTP inhibition assay (pNPP); type: biochemical
T3 sequence (Q9NP77 1-194): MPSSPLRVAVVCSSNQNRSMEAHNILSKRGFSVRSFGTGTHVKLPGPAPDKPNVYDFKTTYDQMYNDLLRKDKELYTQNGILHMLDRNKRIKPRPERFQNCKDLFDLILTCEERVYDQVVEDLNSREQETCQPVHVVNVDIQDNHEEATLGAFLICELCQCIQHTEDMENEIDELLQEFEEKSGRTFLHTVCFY

Meg2 = target: T4, Meg2 (Homo sapiens, UniProt P43378); experiment: PTP inhibition assay (pNPP); type: biochemical
T4 sequence (P43378 1-593): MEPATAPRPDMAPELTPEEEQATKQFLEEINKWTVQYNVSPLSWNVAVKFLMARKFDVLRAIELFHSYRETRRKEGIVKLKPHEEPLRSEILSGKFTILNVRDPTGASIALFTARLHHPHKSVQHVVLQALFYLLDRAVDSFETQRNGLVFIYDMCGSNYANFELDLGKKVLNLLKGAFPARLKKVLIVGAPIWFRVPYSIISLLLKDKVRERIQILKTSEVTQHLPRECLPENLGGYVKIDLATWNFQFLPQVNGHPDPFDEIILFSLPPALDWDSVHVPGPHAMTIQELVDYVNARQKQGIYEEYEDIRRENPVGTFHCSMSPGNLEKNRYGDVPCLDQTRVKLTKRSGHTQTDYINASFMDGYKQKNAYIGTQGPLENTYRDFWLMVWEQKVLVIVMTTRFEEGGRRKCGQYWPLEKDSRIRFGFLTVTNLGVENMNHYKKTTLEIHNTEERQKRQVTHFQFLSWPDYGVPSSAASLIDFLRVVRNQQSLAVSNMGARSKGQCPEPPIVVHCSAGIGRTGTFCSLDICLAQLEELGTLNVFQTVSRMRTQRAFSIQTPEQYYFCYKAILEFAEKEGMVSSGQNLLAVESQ

LAR = LAR (Homo sapiens, UniProt P10586); experiment: PTP inhibition assay (pNPP); type: biochemical
Chain of LAR (P10586 30-1907): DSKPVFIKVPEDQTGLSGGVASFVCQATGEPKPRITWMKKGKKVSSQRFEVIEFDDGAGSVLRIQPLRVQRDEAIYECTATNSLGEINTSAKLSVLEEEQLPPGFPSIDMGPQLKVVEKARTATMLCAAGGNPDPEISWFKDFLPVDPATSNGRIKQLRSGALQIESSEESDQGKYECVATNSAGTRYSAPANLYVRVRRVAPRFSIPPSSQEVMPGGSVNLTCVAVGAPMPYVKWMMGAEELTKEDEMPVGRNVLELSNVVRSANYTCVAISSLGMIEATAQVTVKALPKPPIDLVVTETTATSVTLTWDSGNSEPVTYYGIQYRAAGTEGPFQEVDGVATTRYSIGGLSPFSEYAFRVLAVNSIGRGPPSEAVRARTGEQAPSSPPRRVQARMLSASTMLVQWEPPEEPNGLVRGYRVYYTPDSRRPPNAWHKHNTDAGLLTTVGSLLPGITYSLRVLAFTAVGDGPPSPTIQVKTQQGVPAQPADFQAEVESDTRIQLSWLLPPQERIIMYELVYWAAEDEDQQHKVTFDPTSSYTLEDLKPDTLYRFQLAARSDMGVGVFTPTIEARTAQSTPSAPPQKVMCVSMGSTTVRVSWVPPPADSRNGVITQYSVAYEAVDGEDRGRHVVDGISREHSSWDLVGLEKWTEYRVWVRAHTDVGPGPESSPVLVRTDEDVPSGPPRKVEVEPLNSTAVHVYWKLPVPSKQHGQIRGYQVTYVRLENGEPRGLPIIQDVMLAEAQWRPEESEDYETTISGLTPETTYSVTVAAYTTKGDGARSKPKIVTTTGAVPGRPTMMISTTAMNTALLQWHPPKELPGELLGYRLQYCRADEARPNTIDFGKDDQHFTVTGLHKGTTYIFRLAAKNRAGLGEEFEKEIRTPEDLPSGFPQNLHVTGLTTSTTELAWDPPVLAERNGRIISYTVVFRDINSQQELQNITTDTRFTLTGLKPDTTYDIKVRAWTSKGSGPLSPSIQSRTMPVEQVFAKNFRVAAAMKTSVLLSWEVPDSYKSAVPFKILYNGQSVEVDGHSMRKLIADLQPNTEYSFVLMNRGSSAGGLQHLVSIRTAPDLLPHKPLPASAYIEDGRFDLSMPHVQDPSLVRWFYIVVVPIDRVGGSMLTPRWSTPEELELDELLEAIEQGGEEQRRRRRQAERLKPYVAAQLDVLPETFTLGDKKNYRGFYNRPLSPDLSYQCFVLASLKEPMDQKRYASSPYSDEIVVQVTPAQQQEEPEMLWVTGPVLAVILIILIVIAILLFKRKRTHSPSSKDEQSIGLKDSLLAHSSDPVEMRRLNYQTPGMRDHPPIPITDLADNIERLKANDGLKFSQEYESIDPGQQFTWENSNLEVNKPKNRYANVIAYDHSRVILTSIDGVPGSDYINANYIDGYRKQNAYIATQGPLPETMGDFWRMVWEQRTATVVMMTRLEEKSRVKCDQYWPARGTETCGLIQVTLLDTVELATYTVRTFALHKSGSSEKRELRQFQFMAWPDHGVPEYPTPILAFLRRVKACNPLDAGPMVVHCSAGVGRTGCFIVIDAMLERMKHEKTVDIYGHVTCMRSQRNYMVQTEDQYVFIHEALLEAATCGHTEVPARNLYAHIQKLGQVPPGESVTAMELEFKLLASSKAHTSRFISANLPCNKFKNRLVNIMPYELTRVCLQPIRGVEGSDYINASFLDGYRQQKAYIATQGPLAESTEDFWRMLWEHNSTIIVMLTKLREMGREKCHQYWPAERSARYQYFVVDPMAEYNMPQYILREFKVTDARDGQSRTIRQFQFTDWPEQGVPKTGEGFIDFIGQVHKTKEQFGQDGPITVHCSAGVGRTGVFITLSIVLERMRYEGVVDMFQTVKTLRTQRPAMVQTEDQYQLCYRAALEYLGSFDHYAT

PTPα = PTPα (Homo sapiens, UniProt P18433); experiment: PTP inhibition assay (pNPP); type: biochemical
Chain of PTPα (P18433 20-802): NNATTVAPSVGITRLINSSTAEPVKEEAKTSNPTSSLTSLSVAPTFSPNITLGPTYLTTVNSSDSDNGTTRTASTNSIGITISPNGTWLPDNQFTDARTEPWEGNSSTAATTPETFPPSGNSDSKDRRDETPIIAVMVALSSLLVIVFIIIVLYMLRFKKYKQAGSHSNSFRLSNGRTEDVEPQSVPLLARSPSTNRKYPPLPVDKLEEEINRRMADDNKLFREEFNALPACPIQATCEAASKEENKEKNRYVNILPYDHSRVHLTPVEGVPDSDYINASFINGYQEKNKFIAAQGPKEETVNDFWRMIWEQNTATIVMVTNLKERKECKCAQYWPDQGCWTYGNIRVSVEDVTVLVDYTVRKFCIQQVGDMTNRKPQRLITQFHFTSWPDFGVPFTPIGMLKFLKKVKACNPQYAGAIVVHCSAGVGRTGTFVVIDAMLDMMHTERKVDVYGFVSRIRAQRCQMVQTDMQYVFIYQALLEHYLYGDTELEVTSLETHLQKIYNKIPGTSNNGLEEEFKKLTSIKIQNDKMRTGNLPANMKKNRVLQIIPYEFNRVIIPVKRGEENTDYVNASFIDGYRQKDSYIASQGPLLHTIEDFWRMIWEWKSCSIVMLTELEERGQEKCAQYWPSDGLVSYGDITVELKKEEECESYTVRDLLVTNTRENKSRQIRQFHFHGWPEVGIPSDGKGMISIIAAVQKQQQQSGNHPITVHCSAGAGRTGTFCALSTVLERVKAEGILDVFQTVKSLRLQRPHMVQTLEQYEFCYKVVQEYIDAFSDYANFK

MKP3 = target: T5, MKP3 (Homo sapiens, UniProt Q16828); experiment: PTP inhibition assay (pNPP); type: biochemical
T5 sequence (Q16828 1-381): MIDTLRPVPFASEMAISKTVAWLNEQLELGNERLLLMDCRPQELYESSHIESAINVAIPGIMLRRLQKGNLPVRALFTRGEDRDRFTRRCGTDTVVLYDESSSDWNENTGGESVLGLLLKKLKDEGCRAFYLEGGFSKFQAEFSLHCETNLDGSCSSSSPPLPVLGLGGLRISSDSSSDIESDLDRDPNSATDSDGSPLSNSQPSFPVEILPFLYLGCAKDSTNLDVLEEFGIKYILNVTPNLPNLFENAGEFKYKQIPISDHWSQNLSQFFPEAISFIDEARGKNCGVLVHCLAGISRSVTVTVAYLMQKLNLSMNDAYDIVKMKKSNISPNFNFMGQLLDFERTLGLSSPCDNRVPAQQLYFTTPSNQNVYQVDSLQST

PTPμ = PTPμ (Homo sapiens, UniProt P28827); experiment: PTP inhibition assay (pNPP)
Chain of PTPμ (P28827 21-1452): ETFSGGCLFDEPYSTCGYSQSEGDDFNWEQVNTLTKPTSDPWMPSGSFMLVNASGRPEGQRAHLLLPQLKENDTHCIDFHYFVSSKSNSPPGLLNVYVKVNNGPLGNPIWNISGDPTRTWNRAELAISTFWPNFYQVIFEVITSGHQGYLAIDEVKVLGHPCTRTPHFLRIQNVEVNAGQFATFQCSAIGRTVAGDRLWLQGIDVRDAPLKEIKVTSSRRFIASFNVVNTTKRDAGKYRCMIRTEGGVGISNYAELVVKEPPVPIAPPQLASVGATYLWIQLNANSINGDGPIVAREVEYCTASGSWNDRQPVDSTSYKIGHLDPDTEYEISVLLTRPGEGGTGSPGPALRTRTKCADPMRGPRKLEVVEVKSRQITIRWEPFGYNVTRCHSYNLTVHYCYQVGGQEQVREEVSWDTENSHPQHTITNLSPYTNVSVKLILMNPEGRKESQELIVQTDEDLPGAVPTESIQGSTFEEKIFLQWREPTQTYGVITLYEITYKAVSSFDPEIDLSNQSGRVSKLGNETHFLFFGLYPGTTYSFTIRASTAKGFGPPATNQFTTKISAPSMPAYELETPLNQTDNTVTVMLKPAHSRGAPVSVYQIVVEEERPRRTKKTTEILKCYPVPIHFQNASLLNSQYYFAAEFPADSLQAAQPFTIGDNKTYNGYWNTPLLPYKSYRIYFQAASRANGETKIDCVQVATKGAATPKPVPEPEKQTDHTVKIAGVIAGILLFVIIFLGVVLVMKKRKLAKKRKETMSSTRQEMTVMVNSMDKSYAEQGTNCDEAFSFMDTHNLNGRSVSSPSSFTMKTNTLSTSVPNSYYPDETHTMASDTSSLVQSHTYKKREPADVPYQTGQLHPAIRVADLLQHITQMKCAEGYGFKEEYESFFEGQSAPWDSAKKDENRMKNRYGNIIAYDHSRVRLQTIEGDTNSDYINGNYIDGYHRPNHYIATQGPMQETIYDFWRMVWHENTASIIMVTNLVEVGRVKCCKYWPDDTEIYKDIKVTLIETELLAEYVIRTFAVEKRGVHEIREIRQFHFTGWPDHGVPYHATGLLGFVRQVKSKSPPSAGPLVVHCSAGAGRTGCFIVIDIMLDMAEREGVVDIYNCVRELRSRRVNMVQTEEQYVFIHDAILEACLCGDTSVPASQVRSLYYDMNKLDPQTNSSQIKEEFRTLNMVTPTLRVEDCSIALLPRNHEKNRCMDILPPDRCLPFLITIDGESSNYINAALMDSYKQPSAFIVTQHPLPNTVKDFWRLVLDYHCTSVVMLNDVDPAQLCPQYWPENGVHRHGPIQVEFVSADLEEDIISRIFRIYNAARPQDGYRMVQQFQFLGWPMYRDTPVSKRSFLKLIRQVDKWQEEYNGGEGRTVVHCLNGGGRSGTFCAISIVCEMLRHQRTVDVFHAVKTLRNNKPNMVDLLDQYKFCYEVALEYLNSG

PP5 = target: T6, PP5 (Homo sapiens, UniProt P53041); experiment: Phosphatase inhibition assay (pNPP)
T6 sequence (P53041 1-499): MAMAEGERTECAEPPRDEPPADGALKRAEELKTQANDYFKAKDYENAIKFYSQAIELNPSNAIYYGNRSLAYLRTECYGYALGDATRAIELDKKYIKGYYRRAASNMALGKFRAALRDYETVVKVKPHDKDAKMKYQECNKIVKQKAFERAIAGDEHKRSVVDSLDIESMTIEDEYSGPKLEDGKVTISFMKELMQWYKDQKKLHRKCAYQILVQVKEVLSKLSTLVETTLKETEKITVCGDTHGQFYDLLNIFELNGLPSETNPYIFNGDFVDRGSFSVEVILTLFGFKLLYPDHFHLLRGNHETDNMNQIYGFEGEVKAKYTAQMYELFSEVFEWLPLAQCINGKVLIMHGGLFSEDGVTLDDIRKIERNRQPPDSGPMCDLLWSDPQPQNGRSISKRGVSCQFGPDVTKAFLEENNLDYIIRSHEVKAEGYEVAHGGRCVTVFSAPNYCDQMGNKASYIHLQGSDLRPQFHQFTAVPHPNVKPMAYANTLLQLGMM

[1] = pNPP at Km, pH 7.0, 25° C., read-out: IC50 TcPTP
[2] = pNPP at Km, pH 7.0, 25° C., read-out: IC50 Ssu72

Row | Compound | IC50 (LMWPTP; pNPP at Km, pH 7.0, 25° C.) | IC50 (TcPTP; [1]) | IC50 (Ssu72; [2]) | IC50 (Meg2) | IC50 (LAR) | IC50 (PTPα) | IC50 (MKP3) | IC50 (PTPμ) | IC50 (PP5) | IC50 (LMWPTP; pH 7) | IC50 (TcPTP; IC50 TcPTP) | IC50 (Ssu72; IC50 Ssu72)
1 | O=C(NCCNC(=O)C(c1ccccc1)S(=O)(=O)O)c1cccc(C(=O)c2ccccc2)c1 (centres unmarked) [Compound L319-02-A60] | > 200 µM | > 200 µM | > 200 µM |  |  |  |  |  |  |  |  | 
2 | O=C(CS(=O)(=O)O)Nc1cnc2ccccc2c1 | 12 µM | > 100 µM | > 100 µM | > 100 µM | > 100 µM | > 100 µM | > 100 µM | > 100 µM | > 100 µM |  |  | 
3 | O=C(Nc1nc2ccccc2s1)C(c1ccccc1)S(=O)(=O)O (centres unmarked) [Compound L319N15] | 7.33 µM and 8.6 µM | > 200 µM | 69 µM | > 200 µM | > 200 µM | > 200 µM | > 200 µM | > 200 µM | > 200 µM | 7.1 µM |  | 
4 | O=C(Nc1ccc(N2CCOCC2)cc1)C(c1ccccc1)S(=O)(=O)O (centres unmarked) [Compound L319M68] | 20 µM | > 200 µM | > 200 µM | > 200 µM | > 200 µM | > 200 µM | > 200 µM | > 200 µM | > 200 µM | 8.1 µM |  | 
5 | Cc1c(Br)cc(NC(=O)C(c2ccccc2)S(=O)(=O)O)cc1Br (centres unmarked) [Compound L319M34] | 4.5 µM |  |  |  |  |  |  |  |  | 5.3 µM | > 100 µM | > 100 µM
6 | O=C(Nc1cccc(OCc2ccccc2)c1)C(=O)Nc1ccccc1NC(=O)C(c1ccccc1)S(=O)(=O)O (centres unmarked) [Compound L319-21-M52] | > 50 µM | > 50 µM | > 50 µM |  |  |  |  |  |  |  |  | 
7 | O=C(Nc1cnc2ccccc2c1)C(c1ccccc1)S(=O)(=O)O (centres unmarked) [Compound L319M88] | 6.1 µM | > 200 µM | > 200 µM | > 200 µM | > 200 µM | > 200 µM | > 200 µM | > 200 µM | > 200 µM | 7.3 µM |  | 
8 | O=C(C(c1ccccc1)S(=O)(=O)O)N1CCC(c2ccc(Cl)c(Cl)c2)CC1 (centres unmarked) [Compound L319N47] | 115 µM | 160 µM | > 200 µM | 147 µM | > 200 µM | > 200 µM | > 200 µM | > 200 µM | > 200 µM |  |  | 
9 | O=C(CS(=O)(=O)O)Nc1ccc2nc(C(F)(F)F)[nH]c2c1 | 1.86 µM | > 100 µM | > 100 µM | > 100 µM | > 100 µM | > 100 µM | > 100 µM | > 100 µM | > 100 µM |  |  | 
10 | CCCCc1ccc(NC(=O)C(=O)Nc2ccccc2NC(=O)C(c2ccccc2)S(=O)(=O)O)cc1 (centres unmarked) [Compound L319-21-M06] | > 50 µM | > 50 µM | > 50 µM |  |  |  |  |  |  |  |  | 
11 | O=C(CS(=O)(=O)O)Nc1nc2ccc([N+](=O)[O-])cc2s1 [Compound L335N15-07] | 0.3 µM | > 100 µM | > 100 µM | > 100 µM | > 100 µM | > 100 µM | > 100 µM | > 100 µM | > 100 µM |  |  | 
12 | O=C(Nc1ccc(-c2ccccc2)cc1)C(c1ccccc1)S(=O)(=O)O (centres unmarked) [Compound L319N08] | 28.9 µM |  |  |  |  |  |  |  |  |  | > 200 µM | 72.9 µM
13 | O=C(NCc1ccc(NC(=O)C(c2ccccc2)S(=O)(=O)O)cc1)c1ccccc1-c1ccc(C(F)(F)F)cc1 (centres unmarked) [Compound L319-05-A64] | 29 µM | 96 µM | 170 µM |  |  |  |  |  |  |  |  | 
14 | O=C(Nc1ccc2nc(C(F)(F)F)[nH]c2c1)C(c1ccccc1)S(=O)(=O)O (centres unmarked) [Compound L319M54] | 7.96 µM and 5 µM | > 200 µM | > 200 µM | > 200 µM | > 200 µM | > 200 µM | > 200 µM | > 200 µM | > 200 µM | 5.6 µM |  | 
15 | Cc1c(Br)cc(NC(=O)CS(=O)(=O)O)cc1Br | 4.2 µM |  |  | > 100 µM | > 100 µM | > 100 µM |  | > 100 µM | > 100 µM |  |  | 
16 | O=C(Nc1cccc(OCc2ccccc2)c1)C(c1ccccc1)S(=O)(=O)O (centres unmarked) [Compound L319M52] | 72.3 µM | 170 µM and > 100 µM | 97.6 µM | > 200 µM | > 200 µM | > 200 µM | > 200 µM | > 200 µM | > 200 µM |  |  | 
17 | O=C(Nc1ccc(OCc2ccccc2)c(Cl)c1)C(c1ccccc1)S(=O)(=O)O (centres unmarked) [Compound L319M50] |  | > 100 µM | 66.6 µM |  |  |  |  |  |  | 12.1 µM |  | 
18 | O=C(C(c1ccccc1)S(=O)(=O)O)N1CCC(Cc2ccccc2)CC1 (centres unmarked) [Compound L319N46] | > 200 µM | > 200 µM | > 200 µM | > 200 µM | > 200 µM | > 200 µM | > 200 µM | > 200 µM | > 200 µM |  |  | 
19 | O=C(C(c1ccccc1)S(=O)(=O)O)N1CCCC2CCCCC21 (centres unmarked) [Compound L319N53] | > 200 µM | > 200 µM | > 200 µM | > 200 µM | > 200 µM | > 200 µM | > 200 µM | > 200 µM | > 200 µM |  |  | 
20 | O=C(CS(=O)(=O)O)Nc1nc2ccccc2s1 [Compound L335N15] | 2.1 µM | > 100 µM | > 100 µM | > 100 µM | > 100 µM | > 100 µM | > 100 µM | > 100 µM | > 100 µM |  |  | 
